Test results as given in patent US20230390319A1, “INTERFERON GENE STIMULATOR COMPOSITION COMPRISING INDOLIZINE DERIVATIVE AS ACTIVE INGREDIENT” (AJOU UNIVERSITY INDUSTRY-ACADEMIC COOPERATION FOUNDATION, priority 2020, published 2023).
Values joined by “and” are separate entries in the source; they are usually repeats but may differ in a detail not shown here. Equal values may be shown once. Read-outs that look alike come from different tables or passages of the source.

Assay: PK profiles after IV and PO administration to BALB/c mice
Assay type: in vivo
Conditions: for MRT last: read-out: MRT(0-t); for MRT inf: read-out: MRT(0-∞)
From the text: The pharmacokinetics and oral bioavailability of Compound 42 were investigated in mice following single intravenous (IV) injection and oral administration (PO).

[1] = BALB/c, mouse, blood, po, 20 mg/kg, PO 20.0 mg/kg, individual animals
[2] = BALB/c, mouse, blood, po, 20 mg/kg, PO 20.0 mg/kg, mean n=3
[3] = IV 5.0 mg/kg, individual animals, 5 mg/kg
[4] = PO 20.0 mg/kg, individual animals, 20 mg/kg

concentration at 6 h (BALB/c, mouse, blood, po, 20 mg/kg, PO 20 mg/kg, 6.00 h, individual animals 201-203, read-out: concentration in blood): 98.7 ng/mL | concentration at 6 h (BALB/c, mouse, blood, po, 20 mg/kg, PO 20 mg/kg, 6.00 h, mean, read-out: concentration in blood, Mean PO): 111 ng/mL | concentration at 24 h (BALB/c, mouse, blood, po, 20 mg/kg, PO 20 mg/kg, 24.00 h, individual animals 201-203, read-out: concentration in blood): 39 ng/mL | concentration at 24 h (BALB/c, mouse, blood, po, 20 mg/kg, PO 20 mg/kg, 24.00 h, mean, read-out: concentration in blood, Mean PO): 42.4 ng/mL | AUC(0-t) (BALB/c, mouse, blood, po, 20 mg/kg, PO 20.0 mg/kg, individual animals, read-out: AUC(0-t)): 2100 ng·h/mL | AUC(0-inf) (BALB/c, mouse, blood, po, 20 mg/kg, PO 20.0 mg/kg, individual animals, read-out: AUC(0-∞)): 2750 ng·h/mL | Cmax (BALB/c, mouse, blood, po, 20 mg/kg, PO 20.0 mg/kg, individual animals, read-out: Cmax): 211 ng/mL | MRT last [1]: 7.66 h | MRT inf [1]: 15.5 h | half-life (BALB/c, mouse, blood, po, 20 mg/kg, PO 20.0 mg/kg, individual animals, read-out: T1/2 (converted)): 11.6 h | AUC(0-t) (BALB/c, mouse, blood, po, 20 mg/kg, PO 20.0 mg/kg, mean n=3, read-out: AUC(0-t)): 2320 ng·h/mL | AUC(0-inf) (BALB/c, mouse, blood, po, 20 mg/kg, PO 20.0 mg/kg, mean n=3, read-out: AUC(0-∞)): 3030 ng·h/mL | Cmax (BALB/c, mouse, blood, po, 20 mg/kg, PO 20.0 mg/kg, mean n=3, read-out: Cmax): 225 ng/mL | MRT last [2]: 7.64 h | MRT inf [2]: 15.4 h | half-life (BALB/c, mouse, blood, po, 20 mg/kg, PO 20.0 mg/kg, mean n=3, read-out: T1/2 (converted)): 11.6 h | AUC(0-inf) (BALB/c, mouse, blood, po, 20 mg/kg, PO administration of 20 mpk, read-out: AUC∞): 3030 ng·h/mL | Cmax (BALB/c, mouse, blood, po, 20 mg/kg, PO administration of 20 mpk, read-out: Cmax): 224 ng/mL | half-life (BALB/c, mouse, blood, po, 20 mg/kg, PO administration of 20 mpk, read-out: half-life (converted)): 11.6 h | Tmax (BALB/c, mouse, blood, IV 5.0 mg/kg, mean n=3): 0.083 h | Tmax (BALB/c, mouse, blood, PO 20.0 mg/kg, individual animals): 1 h | concentration in blood (IV 5 mg/kg, 0.083 h, individual animals 101-103, 5 mg/kg): 2724.650 ng/mI and 2922.650 ng/mI | concentration in blood (IV 5 mg/kg, 0.25 h, individual animals 101-103, 5 mg/kg): 1228.390 ng/mI and 1506.240 ng/mI | concentration in blood (IV 5 mg/kg, 0.50 h, individual animals 101-103, 5 mg/kg): 741.777 ng/mI and 916.427 ng/mI | concentration in blood (IV 5 mg/kg, 1.00 h, individual animals 101-103, 5 mg/kg): 319.272 ng/mI and 350.728 ng/mI | concentration in blood (IV 5 mg/kg, 4.00 h, individual animals 101-103, 5 mg/kg): 129.441 ng/mI and 94.754 ng/mI | concentration in blood (IV 5 mg/kg, 24.00 h, individual animals 101-103, 5 mg/kg): 45.260 ng/mI and 30.044 ng/mI | AUCINF_obs AUC(0-∞) [3]: 4161.11 ng·h/mL and 3533.38 ng·h/mL | AUClast AUC(0-t) [3]: 3542.76 ng·h/mL and 3195.55 ng·h/mL | C0 [3]: 4048.20 ng/mL and 4063.09 ng/mL | Cl_obs Cl [3]: 20.0267 mL/min/kg and 23.5847 mL/min/kg | Cmax [3]: 2724.65 ng/mL and 2922.65 ng/mL | HL_Lambda_z T1/2 [3]: 9.47 h and 7.79 h | MRTINF_obs MRT(0-∞) [3]: 9.83 h and 6.90 h | MRTlast MRT(0-t) [3]: 4.97 h and 3.90 h | Vss_obs Vss [3]: 11.80918 L/kg and 9.76009 L/kg | Vz_obs Vz [3]: 16.41627 L/kg and 15.912 L/kg | concentration in blood (PO 20 mg/kg, 0.25 h, individual animals 201-203, 20 mg/kg): 114.648 ng/mI and 79.841 ng/mI | concentration in blood (PO 20 mg/kg, 0.50 h, individual animals 201-203, 20 mg/kg): 164.520 ng/mI and 165.563 ng/mI | concentration in blood (PO 20 mg/kg, 1.00 h, individual animals 201-203, 20 mg/kg): 232.437 ng/mI and 230.000 ng/mI | concentration in blood (PO 20 mg/kg, 3.00 h, individual animals 201-203, 20 mg/kg): 155.307 ng/mI and 179.295 ng/mI | concentration in blood (PO 20 mg/kg, 6.00 h, individual animals 201-203, 20 mg/kg): 123.919 ng/mI and 111.651 ng/mI | concentration in blood (PO 20 mg/kg, 24.00 h, individual animals 201-203, 20 mg/kg): 37.325 ng/mI and 50.885 ng/mI | AUC(0-t) [4]: 2406.25 ng·h/mL and 2448.08 ng·h/mL | AUC(0-∞) [4]: 2959.50 ng·h/mL and 3385.50 ng·h/mL | Cmax [4]: 232.44 ng/mL and 230.00 ng/mL | F [4]: 15.87% and 18.22% and 18.54% | MRT(0-t) [4]: 7.22 h and 8.04 h | MRT(0-∞) [4]: 13.12 h and 17.56 h | T1/2 [4]: 10.27 h and 12.77 h | F (PO 20.0 mg/kg, mean n=3): 17.55%
SMILES: CC(=O)c1ccc(-c2cc(C(=O)c3ccc(C(F)(F)F)cc3)n3ccccc23)cc1 [Compound 42]
